Results taken from publication PMC11500415, “Chemical inhibition of stomatal differentiation by perturbation of the master-regulatory bHLH heterodimer via an ACT-Like domain” (Nature Communications, 2024).
Where “and” joins values, the source holds several entries; their conditions need not be identical. Equal entries are not always repeated.

How the values were obtained:
[1] = Stability with acid or base in organic solvent; type: physicochemical; conditions: 1,2-dichloroethane, 40 °C, 3 h
Description: To examine the stability of Stomidazolone and identify any degraded products (if unstable), we treated Stomidazolone with an acid or a base. […] The major degraded product under basic conditions was isolated with gel-permeation chromatography (GPC) in 48% yield. The product, which we designated as lzx103 (compound 4), was identified as (phenylsulfonyl)benzimidamide[39] through ^1H and ^13C NMR analyses (Supplementary Fig. 3a, Supplementary Data 1). […]
show any biological activity on stomatal development (see Revised Fig. S3), thus ruling out the possibility that the inhibition of stomatal differentiation is attributable to the degradation product rather than Stomidzaolone itself. The yield of Izx103 was determined through isolation. Please see the schematics below (presented as Fig. S3). These new findings are described in detail in our Revised Results section (see Page 6 "Stability of […]
with CH COOH (3.1 equiv.) HN […]
with NaOH (3.1 equiv.) NH2 […]
The authors should also provide a better 13C NMR spectrum of the compound in the SI, the current copy features rather weak signal intensities and some signals can only be suspected.
We re-synthesized Stomidazolone and substituted with a better 13C NMR spectrum of Stomidazolone in our revised Document S1. Thank you.
Finally, it should be mentioned in the MS right from the beginning that the compound is a racemic mixture (see also point 2 for this).
We sincerely appreciate Reviewer 2 for raising an important point. Please see our […]
observed effects are caused by Stomidazolone-mediated modulation of MUTE function. The authors use SIM1 during the plant assays which is however not an optimal control as it is not […]
in the biochemical assays, while active compounds are in contrast active in both assay types.
An almost optimal control for these phenotypic and biochemical assays in my view are the two enantiomers of Stomidazolone. […]

[2] = molecular target: T1, SCRM-SPCH heterodimer (Arabidopsis thaliana, UniProt Q700C7); test: Y2H growth and quantitative α-galactosidase assay; type: cell-based; conditions: for a-galactosidase: yeast SPCH∆N+SCRM, individual replicates, listed as AYSJ929
T1 construct: truncated SPCH and FAMA proteins lacking their N-terminal domain were used in yeast; expressed in transfected cells; host or cells: yeast strain AH109
T1 sequence (Q700C7 98-364 limits assumed): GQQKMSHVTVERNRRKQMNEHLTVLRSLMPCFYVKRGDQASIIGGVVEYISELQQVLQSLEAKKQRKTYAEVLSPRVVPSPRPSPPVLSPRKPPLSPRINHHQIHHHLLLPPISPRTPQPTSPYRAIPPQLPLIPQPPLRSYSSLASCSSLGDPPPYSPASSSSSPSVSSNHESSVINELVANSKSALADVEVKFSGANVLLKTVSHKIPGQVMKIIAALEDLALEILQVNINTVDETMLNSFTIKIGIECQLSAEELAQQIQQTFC

O=C1C(c2ccccc2)=NC(NS(=O)(=O)c2ccccc2)(c2ccccc2)N1S(=O)(=O)c1ccccc1 (centres unmarked) [Stomidazolone]
stability under acidic conditions ([1]; 3 equiv. of acetic acid): stable
stability under basic conditions ([1]; 3 equiv. of sodium hydroxide): completely degraded
recovered by 1H NMR analysis ([1]; CH3COOH (3.1 equiv.)): 93%
effect in quantitative α-galactosidase assay ([2]; 0, 10, 50, 100 μM): slightly less impact
effect on association in Y2H growth assay ([2]; 50 μM, 1 mM 3-AT, N-terminally truncated SPCH): diminishes
a-galactosidase ([2]; 10 µM): 5.51 milliunits /(ml x cell) and 5.69 milliunits /(ml x cell) and 5.47 milliunits /(ml x cell)
a-galactosidase ([2]; 50 µM): 5.02 milliunits /(ml x cell) and 5.49 milliunits /(ml x cell) and 5.63 milliunits /(ml x cell)
a-galactosidase ([2]; 100 µM): 5.62 milliunits /(ml x cell) and 5.13 milliunits /(ml x cell)
